The values below come from patent publication US12534706B2, “Method for maturation of retinal tissue containing continuous epithelium” (RIKEN, priority 2017, dated 2026).

Experiment [1] has as its system cell aggregate containing a retinal tissue (CRX::Venus knock-in human ES cells). The experiment can be described thus: Continuous epithelium rate of retinal tissue after adding a substance to the medium of culture method [B] (day 38 to 56). It is filed as cell-based. To be noted: day 38 to day 54, 55 or 56. How it is done: A cell aggregate containing a retinal tissue was prepared by the method described in “Kuwahara et al. Nat Commun 2015, 19(6), 6286” after modification in part. That is, the aforementioned cultured ES cells were individually dispersed using TrypLE Express (Invitrogen), and the individually dispersed human ES cells were suspended in 100 μL of a serum-free medium in a cell non-adhesive 96 well culture plate (SUMILON spheroid plate, SUMITOMO BAKELITE CO., LTD.) at 9×10^3 cells per well to allow rapid formation of aggregates, after which they were cultured at 37° C., 5% CO2. As the serum-free medium therefor, a serum-free medium obtained by adding 10% KSR, 450 μM 1-monothioglycerol, 1× Chemically defined lipid concentrate, 5 mg/mL BSA, 20 μM Y27632 to a 1:1 mixture of F-12 medium and IMDM medium was used. At 6 days after the start of suspension culture, BMP4 at a final concentration of 1.5 nM was added and suspension culture was continued. A half amount of the culture medium in the well was exchanged with the above-mentioned medium not supplemented with a BMP signal transduction pathway agonist every 3 or 4 days. A cell aggregate containing a retinal tissue at day 18 from the start of suspension culture was cultured in suspension in a serum-free medium containing 3 μM CHIR99021 and 5 μM SU5402 (DMEM/F12 medium supplemented with 1% N2 supplement) for 4 days, namely, until day 22 from the start of suspension culture. Thereafter, suspension culture was continued using the serum-containing medium. The serum-containing medium used then and the culture method are shown in the following [A] to [C]. The suspension culture of the cell aggregate containing the retinal tissue was continued until it was appropriately used for analysis and the like. • [A] From day 22 to day 56 from the start of suspension culture, suspension culture was performed using a medium obtained by adding 10% bovine calf serum, 1% N2 supplement, and 100 μM taurine to the DMEM/F12 medium. • [B] From day 22 to day 38 from the start of suspension culture, suspension culture was performed using a medium obtained by adding 10% bovine calf serum, 1% N2 supplement, and 100 μM taurine to the DMEM/F12 medium; and from day 38 to day 56 from the start of suspension culture, suspension culture was performed using a 1:3 mixed medium of a medium obtained by adding 10% bovine calf serum, 1% N2 supplement, and 100 μM taurine to the DMEM/F12 medium and a medium obtained by adding 10% bovine calf serum, 2% B27 supplement, and 100 μM taurine to the Neurobasal medium. • [C] From day 22 to day 56 from the start of suspension culture, suspension culture was performed using a medium obtained by adding 10% bovine calf serum, 2% B27 supplement, and 100 μM taurine to the Neurobasal medium (manufactured by Thermo Scientific, 21103049).
Thus, among the substances contained in the medium used in the culture method [B] from day 38 to day 56 from the start of suspension culture in the culturing method [B], a substance that may greatly affect cell differentiation, cell protection, and cell death of retinal tissues was added to the medium used in the culture method [A], and whether it contributes to the improvement of continuous epithelium rate was studied. […]

Experiment [2] shares this test system. The experiment can be described thus: Continuous epithelium rate of retinal tissue after adding a substance to the medium of culture method [A]. To be noted: day 38 to day 54, 55 or 56. The format is cell-based. How it is done:
A cell aggregate containing a retinal tissue was prepared by the method described in “Kuwahara et al. Nat Commun 2015, 19(6), 6286” after modification in part. That is, the aforementioned cultured ES cells were individually dispersed using TrypLE Express (Invitrogen), and the individually dispersed human ES cells were suspended in 100 μL of a serum-free medium in a cell non-adhesive 96 well culture plate (SUMILON spheroid plate, SUMITOMO BAKELITE CO., LTD.) at 9×10^3 cells per well to allow rapid formation of aggregates, after which they were cultured at 37° C., 5% CO2. As the serum-free medium therefor, a serum-free medium obtained by adding 10% KSR, 450 μM 1-monothioglycerol, 1× Chemically defined lipid concentrate, 5 mg/mL BSA, 20 μM Y27632 to a 1:1 mixture of F-12 medium and IMDM medium was used. At 6 days after the start of suspension culture, BMP4 at a final concentration of 1.5 nM was added and suspension culture was continued. A half amount of the culture medium in the well was exchanged with the above-mentioned medium not supplemented with a BMP signal transduction pathway agonist every 3 or 4 days. A cell aggregate containing a retinal tissue at day 18 from the start of suspension culture was cultured in suspension in a serum-free medium containing 3 μM CHIR99021 and 5 μM SU5402 (DMEM/F12 medium supplemented with 1% N2 supplement) for 4 days, namely, until day 22 from the start of suspension culture. Thereafter, suspension culture was continued using the serum-containing medium. The serum-containing medium used then and the culture method are shown in the following [A] to [C]. The suspension culture of the cell aggregate containing the retinal tissue was continued until it was appropriately used for analysis and the like. • [A] From day 22 to day 56 from the start of suspension culture, suspension culture was performed using a medium obtained by adding 10% bovine calf serum, 1% N2 supplement, and 100 μM taurine to the DMEM/F12 medium. • [B] From day 22 to day 38 from the start of suspension culture, suspension culture was performed using a medium obtained by adding 10% bovine calf serum, 1% N2 supplement, and 100 μM taurine to the DMEM/F12 medium; and from day 38 to day 56 from the start of suspension culture, suspension culture was performed using a 1:3 mixed medium of a medium obtained by adding 10% bovine calf serum, 1% N2 supplement, and 100 μM taurine to the DMEM/F12 medium and a medium obtained by adding 10% bovine calf serum, 2% B27 supplement, and 100 μM taurine to the Neurobasal medium. • [C] […]

Regarding `N[C@@H](CC(=O)O)C(=O)O` [L-aspartic acid], in experiment [1] (L-aspartic acid alone, final concentration 50 μM in culture method [B] medium), the continuous epithelium rate result is “decreased the continuous epithelium rate slightly, but the difference was not significant”.

As for `N[C@@H](CCC(=O)O)C(=O)O` [L-glutamic acid], the continuous epithelium rate result in experiment [1] (L-glutamic acid alone, final concentration 50 μM in culture method [B] medium) is listed as “contributed to the decrease”.

Regarding `C[C@]12C[C@H](O)[C@H]3[C@@H](CCC4=CC(=O)CC[C@@]43C)[C@@H]1CC[C@@H]2C(=O)CO` [corticosterone, reference compound], in experiment [2] (final concentration 100 nM added to culture method [A] medium, vs nothing added (corticosterone)), the continuous epithelium rate result is recorded as “increased”.

`N[C@@H](CS)C(=O)O` [cysteine]: in experiment [2] (final concentration 0.22 mM in culture method [A] medium, vs nothing added), the continuous epithelium rate entry is given as “decreased”.

Take `O=c1[nH]cnc2nc[nH]c12` [hypoxanthine]: the continuous epithelium rate result in experiment [1] (final concentration 15 μM in culture method [B] medium) was “contributed to a decrease”.

Regarding `CSCC[C@H](N)C(=O)O` [methionine], the continuous epithelium rate entry in experiment [2] (final concentration 26.81 mg/L in culture method [A] medium, vs nothing added) was “increased”.

For `CC(=O)[C@H]1CC[C@H]2[C@@H]3CCC4=CC(=O)CC[C@]4(C)[C@H]3CC[C@]12C` [progesterone, reference compound], the continuous epithelium rate result in experiment [2] (final concentration 100 nM added to culture method [A] medium, vs nothing added (progesterone)) is on record as “similarly decreased”.

As for `Cc1cn([C@H]2C[C@H](O)[C@@H](CO)O2)c(=O)[nH]c1=O` [thymidine], the continuous epithelium rate entry in experiment [1] (final concentration 1.5 μM in culture method [B] medium) is “contributed to a decrease”.

For vitamin B12, the continuous epithelium rate result in experiment [1] (final concentration 0.68 mg/L in culture method [B] medium) is “contributed to a decrease”.
